Source: patent US9388141B2, “Acylaminocycloalkyl compounds suitable for treating disorders that respond to modulation of dopamine D3 receptor” (AbbVie Deutschland GmbH & Co. KG, priority 2013, dated 2016)

Key:
[1] = biological target: T1, human dopamine D3 receptors (Homo sapiens, UniProt P35462); assay: Dopamine D3 receptor binding, [125I]-iodosulpride displacement; conditions: membranes of HEK-293 cells with human D3 receptors, 0.1 nM [125I]-iodosulpride
T1 construct: expressed in transfected cells; host or cells: HEK-293
Method: (§1) The substance to be tested was either dissolved in methanol/Chremophor® (BASF SE) or in dimethyl sulfoxide and then diluted with water to the desired concentration.
(§2) Each assay mixture was run in triplicate. • The incubation buffer contained 50 mM tris, 120 mM NaCl, 5 mM KCl, 2 mM CaCl2, 2 mM MgCl2 and 0.1% bovine serum albumin, 10 μM quinolone and 0.1% ascorbic acid (prepared fresh daily). […] Each assay mixture was run in triplicate. • The incubation buffer contained 50 mM tris, 120 mM NaCl, 5 mM KCl, 2 mM CaCl2, 2 mM MgCl2 and 0.1% bovine serum albumin. The buffer was adjusted to pH 7.4 with HCl. c) Measurement and Analysis: • After having been incubated at 25° C. for 60 minutes, the assay mixtures were filtered through a Whatman GF/B glass fiber filter under vacuum using a cell collecting device. The filters were transferred to scintillation viols using a filter transfer system. After 4 ml of Ultima Gold® (Packard) have been added, the samples were shaken for one hour and the radioactivity was then counted in a Beta-Counter (Packard, Tricarb 2000 or 2200CA).

[2] = biological target: T2, human dopamine D2L receptors (long isoform) (Homo sapiens, UniProt P14416); assay: Dopamine D2L receptor binding, [125I]-iodospiperone displacement; conditions: selectivity ratio Ki (D2L)/Ki (D3)
T2 construct: expressed in transfected cells; host or cells: HEK-293
Method: as §1, §2

[3] = Determination of the microsomal half-life / microsomal clearance; type: in vitro ADME; conditions: human liver microsomes, 0.5 μM test substance, 0.25 mg microsomal protein/ml, pH 7.4, 37° C.
Method: The metabolic stability of the compounds of the invention was determined in the following assay.
The test substances were incubated in a concentration of 0.5 μM as follows:
0.5 μM test substance are preincubated together with liver microsomes from different species (from rat, human or other species) (0.25 mg of microsomal protein/ml) in 0.05 M potassium phosphate buffer of pH 7.4 in microtiter plates at 37° C. for 5 min. The reaction is started by adding NADPH (1 mg/mL). After 0, 5, 10, 15, 20 and 30 min, 50 μl aliquots are removed, and the reaction is immediately stopped and cooled with the same volume of acetonitrile. The samples are frozen until analyzed. The remaining concentration of undegraded test substance is determined by MSMS. The half-life (T1/2) is determined from the gradient of the signal of test substance/unit time plot, it being possible to calculate the half-life of the test substance, assuming first order kinetics, from the decrease in the concentration of the compound with time. The microsomal clearance (mCl) is calculated from mCl=1n2/T1/2/(content of microsomal protein in mg/ml)×1000 [[…]] (modified from references: Di, The Society for Biomoleculur Screening, 2003, 453-462; Obach, DMD, 1999 vol 27. N 11, 1350-1359).

T1 sequence (P35462 whole entry): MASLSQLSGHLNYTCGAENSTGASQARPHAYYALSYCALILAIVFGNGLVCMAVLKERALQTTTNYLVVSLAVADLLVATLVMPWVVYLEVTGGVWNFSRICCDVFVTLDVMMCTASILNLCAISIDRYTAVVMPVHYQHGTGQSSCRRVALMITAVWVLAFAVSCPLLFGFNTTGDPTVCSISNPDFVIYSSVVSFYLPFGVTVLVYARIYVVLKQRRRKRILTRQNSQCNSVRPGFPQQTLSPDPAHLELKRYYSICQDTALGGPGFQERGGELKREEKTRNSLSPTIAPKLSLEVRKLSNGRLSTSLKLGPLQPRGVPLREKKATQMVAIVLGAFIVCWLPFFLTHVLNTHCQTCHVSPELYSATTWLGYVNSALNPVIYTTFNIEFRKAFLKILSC
T2 sequence (P14416 whole entry, canonical isoform): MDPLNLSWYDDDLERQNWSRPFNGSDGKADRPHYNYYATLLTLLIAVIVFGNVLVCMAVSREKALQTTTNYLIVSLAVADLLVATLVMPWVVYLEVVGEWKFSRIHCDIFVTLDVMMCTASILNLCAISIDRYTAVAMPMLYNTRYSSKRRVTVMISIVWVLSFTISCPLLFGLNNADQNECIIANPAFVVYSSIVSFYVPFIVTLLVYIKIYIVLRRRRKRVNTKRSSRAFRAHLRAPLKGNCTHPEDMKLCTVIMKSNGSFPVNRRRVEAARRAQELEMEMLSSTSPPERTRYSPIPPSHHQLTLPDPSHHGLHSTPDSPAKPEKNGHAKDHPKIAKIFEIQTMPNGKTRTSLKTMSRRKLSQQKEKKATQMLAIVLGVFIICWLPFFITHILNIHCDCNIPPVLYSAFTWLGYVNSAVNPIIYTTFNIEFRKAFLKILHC

Question: Which Ki [1] does the source give for COCCc1cc(N2CCN(CC[C@H]3CC[C@H](NC(=O)[C@H]4CC[C@@H](O)CC4)CC3)CC2)nc(C(C)(C)C)n1 [Compound 4, cis-N-[trans-4-[2-[4-[2-tert-butyl-6-(2-methoxyethyl)pyrimidin-4-yl]piperazin-1-yl]ethyl]cyclohexyl]-4-hydroxy-cyclohexanecarboxamide] here?
Answer: Its Ki is under 10 nM.

Question: What about the “D2/D3, Ki (D2L)/Ki (D3)” value [2] of the same compound?
Answer: Its value is “++ (++>20)”.

Question: What about the “Human mCl” value [3] of the same compound?
Answer: The value was “∘ (∘: >120 μl min^−1 mg^−1)”.

Question: Which Ki [1] does the source give for COCCc1cc(N2CCN(CC[C@H]3C[C@H](NC(=O)[C@H]4CC[C@H](O)CC4)C3)CC2)nc(C(C)(C)C)n1.O=C(O)C(F)(F)F [Compound 7, Trans-N-[trans-3-[2-[4-[2-tert-butyl-6-(2-methoxyethyl)pyrimidin-4-yl]piperazin-1-yl]ethyl]cyclobutyl]-4-hydroxy-cyclohexanecarboxamide; 2,2,2-trifluoroacetic acid] here?
Answer: Its Ki is under 10 nM.

Question: What about the “D2/D3, Ki (D2L)/Ki (D3)” value [2] of the same compound?
Answer: The value was “+++ (+++>50)”.

Question: And the “Human mCl” value [3]?
Answer: Its value is “+ (+: 20-120 μl min^−1 mg^−1)”.

Question: Which Ki [1] does the source give for CC(C)(C)c1nc(C2CCCC2)cc(N2CCN(CC[C@H]3CC[C@H](NC(=O)[C@H]4CC[C@H](O)CC4)CC3)CC2)n1 [Compound 35, trans-N-[trans-4-[2-[4-(2-tert-butyl-6-cyclopentyl-pyrimidin-4-yl)piperazin-1-yl]ethyl]cyclohexyl]-4-hydroxy-cyclohexanecarboxamide] here?
Answer: Its Ki is under 10 nM.

Question: And the “D2/D3, Ki (D2L)/Ki (D3)” value [2]?
Answer: Its value is “+ (+>10)”.

Question: And the “Human mCl” value [3]?
Answer: Its value is “+ (+: 20-120 μl min^−1 mg^−1)”.

Question: With CC(C)(C)c1nc(C2CCC2)cc(N2CCN(CC[C@H]3C[C@H](NC(=O)[C@H]4CC[C@H](O)CC4)C3)CC2)n1 [Compound 9, Trans-N-[trans-3-[2-[4-(2-tert-butyl-6-cyclobutyl-pyrimidin-4-yl)piperazin-1-yl]ethyl]cyclobutyl]-4-hydroxy-cyclohexanecarboxamide] as the compound, how does the Ki [1] read?
Answer: The Ki was under 10 nM.

Question: What about the “D2/D3, Ki (D2L)/Ki (D3)” value [2] of the same compound?
Answer: The value was “+++ (+++>50)”.

Question: What about the “Human mCl” value [3] of the same compound?
Answer: Its value is “+ (+: 20-120 μl min^−1 mg^−1)”.

Question: Which results are given for CC(C)c1cc(N2CCN(CCC3CCC(NC(=O)C4CCC(O)CC4)CC3)CC2)nc(C(C)(C)C)n1 (stereo not shown) [Compound 31, N-[4-[2-[4-(2-tert-butyl-6-isopropyl-pyrimidin-4-yl)piperazin-1-yl]ethyl]cyclohexyl]-4-hydroxy-cyclohexanecarboxamide]?
Answer: Ki [1]: < 10 nM; D2/D3, Ki (D2L)/Ki (D3) [2]: ++ (++>20); Human mCl [3]: + (+: 20-120 μl min^−1 mg^−1)

Question: With CC(C)(C)c1nc(C2CCCC2)cc(N2CCN(CC[C@H]3CC[C@@H](NC(=O)[C@H]4CC[C@H](O)CC4)CC3)CC2)n1 [Compound 36, trans-N-[cis-4-[2-[4-(2-tert-butyl-6-cyclopentyl-pyrimidin-4-yl)piperazin-1-yl]ethyl]cyclohexyl]-4-hydroxy-cyclohexanecarboxamide] as the compound, how does the Ki [1] read?
Answer: The Ki was under 10 nM.

Question: And the “D2/D3, Ki (D2L)/Ki (D3)” value [2]?
Answer: The value was “+++ (+++>50)”.

Question: And the “Human mCl” value [3]?
Answer: The value was “+ (+: 20-120 μl min^−1 mg^−1)”.

Question: Which Ki [1] does the source give for CC(C)(C)c1nc(C2CCC2)cc(N2CCN(CC[C@H]3C[C@@H](NC(=O)[C@H]4CC[C@H](O)CC4)C3)CC2)n1 [Compound 10, Trans-N-[cis-3-[2-[4-(2-tert-butyl-6-cyclobutyl-pyrimidin-4-yl)piperazin-1-yl]ethyl]cyclobutyl]-4-hydroxy-cyclohexanecarboxamide] here?
Answer: The Ki was under 10 nM.

Question: And the “D2/D3, Ki (D2L)/Ki (D3)” value [2]?
Answer: Its value is “+++ (+++>50)”.

Question: What about the “Human mCl” value [3] of the same compound?
Answer: Its value is “+ (+: 20-120 μl min^−1 mg^−1)”.

Question: What does the source list for CC(C)(C)c1nc(C2CCC2)cc(N2CCN(CC[C@H]3CC[C@@H](NC(=O)[C@H]4CC[C@H](O)CC4)CC3)CC2)n1 [Compound 6, trans-N-[cis-4-[2-[4-(2-tert-butyl-6-cyclobutyl-pyrimidin-4-yl)piperazin-1-yl]ethyl]cyclohexyl]-4-hydroxy-cyclohexanecarboxamide]?
Answer: Ki [1]: < 10 nM; D2/D3, Ki (D2L)/Ki (D3) [2]: +++ (+++>50); Human mCl [3]: + (+: 20-120 μl min^−1 mg^−1)

Question: With COCCc1cc(N2CCN(CC[C@H]3CC[C@H](NC(=O)[C@H]4CC[C@H](O)CC4)CC3)C[C@H]2C)nc(C(C)(C)C)n1 [Compound 34, trans-N-[trans-4-[2-[(3R)-4-[2-tert-butyl-6-(2-methoxyethyl)pyrimidin-4-yl]-3-methyl-piperazin-1-yl]ethyl]cyclohexyl]-4-hydroxy-cyclohexanecarboxamide] as the compound, how does the Ki [1] read?
Answer: The Ki was under 10 nM.

Question: And the “D2/D3, Ki (D2L)/Ki (D3)” value [2]?
Answer: Its value is “+++ (+++>50)”.

Question: What about the “Human mCl” value [3] of the same compound?
Answer: The value was “+ (+: 20-120 μl min^−1 mg^−1)”.

Question: Which Ki [1] does the source give for COCCc1cc(N2CCN(CC[C@H]3CC[C@H](NC(=O)[C@H]4CC[C@H](O)CC4)CC3)CC2)nc(C(C)(C)C)n1 [Compound 2, trans-N-[trans-4-[2-[4-[2-tert-butyl-6-(2-methoxyethyl)pyrimidin-4-yl]piperazin-1-yl]ethyl]cyclohexyl]-4-hydroxy-cyclohexanecarboxamide] here?
Answer: Its Ki is under 10 nM.

Question: And the “D2/D3, Ki (D2L)/Ki (D3)” value [2]?
Answer: Its value is “++ (++>20)”.

Question: And the “Human mCl” value [3]?
Answer: The value was “+ (+: 20-120 μl min^−1 mg^−1)”.

Question: With CC(C)(C)c1cc(N2CCN(CC[C@H]3CC[C@@H](NC(=O)[C@H]4CC[C@H](O)CC4)CC3)CC2)nc(C(C)(C)C)n1 [Compound 22, trans-N-[cis-4-[2-[4-(2,6-ditert-butylpyrimidin-4-yl)piperazin-1-yl]ethyl]cyclohexyl]-4-hydroxy-cyclohexanecarboxamide] as the compound, how does the Ki [1] read?
Answer: The Ki was under 50 nM.

Question: What about the “D2/D3, Ki (D2L)/Ki (D3)” value [2] of the same compound?
Answer: Its value is “+++ (+++>50)”.

Question: And the “Human mCl” value [3]?
Answer: The value was “+ (+: 20-120 μl min^−1 mg^−1)”.

Question: With COCCc1cc(N2CCN(CC[C@H]3CC[C@H](NC(=O)C4CC(O)(C(F)(F)F)C4)CC3)CC2)nc(C(C)(C)C)n1 (relative stereo) [Compound 25, N-[trans-4-[2-[4-[2-tert-butyl-6-(2-methoxyethyl)pyrimidin-4-yl]piperazin-1-yl]ethyl]cyclohexyl]-3-hydroxy-3-(trifluoromethyl)cyclobutanecarboxamide] as the compound, how does the Ki [1] read?
Answer: The Ki was under 10 nM.

Question: And the “D2/D3, Ki (D2L)/Ki (D3)” value [2]?
Answer: Its value is “++ (++>20)”.

Question: What about the “Human mCl” value [3] of the same compound?
Answer: Its value is “∘ (∘: >120 μl min^−1 mg^−1)”.

Question: For COCc1cc(N2CCN(CC[C@H]3CC[C@H](NC(=O)[C@H]4CC[C@H](O)CC4)CC3)CC2)nc(C(C)(C)C)n1 [Compound 37, trans-N-[trans-4-[2-[4-[2-tert-butyl-6-(methoxymethyl)pyrimidin-4-yl]piperazin-1-yl]ethyl]cyclohexyl]-4-hydroxy-cyclohexanecarboxamide], which Ki [1] is on record?
Answer: Its Ki is under 10 nM.

Question: And the “D2/D3, Ki (D2L)/Ki (D3)” value [2]?
Answer: Its value is “+++ (+++>50)”.

Question: And the “Human mCl” value [3]?
Answer: The value was “+ (+: 20-120 μl min^−1 mg^−1)”.

Question: With CC(C)(C)c1nc(C2CCC2)cc(N2CCN(CC[C@H]3C[C@H](NC(=O)[C@H]4CC[C@@H](O)CC4)C3)CC2)n1.O=C(O)C(F)(F)F [Compound 16, Cis-N-[trans-3-[2-[4-(2-tert-butyl-6-cyclobutyl-pyrimidin-4-yl)piperazin-1-yl]ethyl]cyclobutyl]-4-hydroxy-cyclohexanecarboxamide; 2,2,2-trifluoroacetic acid] as the compound, how does the Ki [1] read?
Answer: The Ki was under 10 nM.

Question: And the “D2/D3, Ki (D2L)/Ki (D3)” value [2]?
Answer: Its value is “++ (++>20)”.

Question: What about the “Human mCl” value [3] of the same compound?
Answer: Its value is “∘ (∘: >120 μl min^−1 mg^−1)”.

Question: Which Ki [1] does the source give for COCCc1cc(N2CCN(CCC3CCC(NC(=O)C4CCC(O)CC4)CC3)C[C@H]2C)nc(C(C)(C)C)n1 (stereo partly drawn) [Compound 33, N-[4-[2-[(3R)-4-[2-tert-butyl-6-(2-methoxyethyl)pyrimidin-4-yl]-3-methyl-piperazin-1-yl]ethyl]cyclohexyl]-4-hydroxy-cyclohexanecarboxamide] here?
Answer: Its Ki is under 50 nM.

Question: What about the “D2/D3, Ki (D2L)/Ki (D3)” value [2] of the same compound?
Answer: Its value is “+++ (+++>50)”.

Question: What about the “Human mCl” value [3] of the same compound?
Answer: The value was “+ (+: 20-120 μl min^−1 mg^−1)”.

Question: Which “Human mCl” value [3] does the source give for COCc1cc(N2CCN(CC[C@H]3CC[C@H](NC(=O)[C@H]4C[C@@H](O)C4)CC3)CC2)nc(C(C)(C)C)n1 [Compound 40, cis-N-[trans-4-[2-[4-[2-tert-butyl-6-(methoxymethyl)pyrimidin-4-yl]piperazin-1-yl]ethyl]cyclohexyl]-3-hydroxy-cyclobutanecarboxamide] here?
Answer: The value was “+ (+: 20-120 μl min^−1 mg^−1)”.
